Reference: ChEMBL document CHEMBL3399963, “Design, synthesis and preliminary biological evaluation of C-8 substituted guanine derivatives as small molecular inhibitors of FGFRs” (Bioorg Med Chem Lett, 2015)
Values belong to the compound of their own block, whether it stands above or below them.

Tests used:
[1] = Cytotoxicity against mouse B16F10 cells after 72 hrs by MTT assay; details: B16-F10, 72 h
[2] = Cytotoxicity against human HeLa 229 cells after 72 hrs by MTT assay; details: HeLa 229, 72 h
[3] = test system: A549; assay: Cytotoxicity against human A549 cells after 72 hrs by MTT assay; details: A549, 72 h
[4] = target: T1, Fibroblast growth factor receptor 4 (Homo sapiens, UniProt P22455); assay: Inhibition of FGFR4 (unknown origin) after 90 mins by TR-FRET assay
T1 sequence (P22455 whole entry): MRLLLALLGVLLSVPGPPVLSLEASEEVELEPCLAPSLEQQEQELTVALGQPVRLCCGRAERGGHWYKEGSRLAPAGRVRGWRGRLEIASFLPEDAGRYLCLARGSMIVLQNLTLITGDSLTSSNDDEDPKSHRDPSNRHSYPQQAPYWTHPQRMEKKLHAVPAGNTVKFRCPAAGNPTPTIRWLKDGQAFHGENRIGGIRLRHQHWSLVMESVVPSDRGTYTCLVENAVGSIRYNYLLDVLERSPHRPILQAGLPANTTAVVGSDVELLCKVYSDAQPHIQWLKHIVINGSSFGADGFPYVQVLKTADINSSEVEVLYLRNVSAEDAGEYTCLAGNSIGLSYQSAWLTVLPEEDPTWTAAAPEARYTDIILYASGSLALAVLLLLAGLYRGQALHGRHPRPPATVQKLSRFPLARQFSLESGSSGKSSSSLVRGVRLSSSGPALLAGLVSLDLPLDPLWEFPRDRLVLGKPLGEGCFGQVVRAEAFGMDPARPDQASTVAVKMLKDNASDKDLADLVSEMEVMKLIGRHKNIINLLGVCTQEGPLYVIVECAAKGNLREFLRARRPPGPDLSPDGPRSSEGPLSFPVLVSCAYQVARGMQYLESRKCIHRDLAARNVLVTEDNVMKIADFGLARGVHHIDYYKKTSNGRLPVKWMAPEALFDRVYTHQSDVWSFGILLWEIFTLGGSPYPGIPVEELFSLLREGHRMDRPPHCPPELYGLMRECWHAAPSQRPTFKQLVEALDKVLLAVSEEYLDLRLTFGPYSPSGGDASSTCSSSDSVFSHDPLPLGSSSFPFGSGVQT

[5] = target: T1, Fibroblast growth factor receptor 4; assay: Inhibition of FGFR4 (unknown origin)
[6] = Cytotoxicity against human HL7702 cells after 72 hrs by MTT assay; details: L02, 72 h
[7] = target: Fibroblast growth factor receptor 3 (Homo sapiens, UniProt P22607); assay: Inhibition of FGFR3 (unknown origin) after 90 mins by TR-FRET assay
Fibroblast growth factor receptor 3, sequence (P22607 whole entry): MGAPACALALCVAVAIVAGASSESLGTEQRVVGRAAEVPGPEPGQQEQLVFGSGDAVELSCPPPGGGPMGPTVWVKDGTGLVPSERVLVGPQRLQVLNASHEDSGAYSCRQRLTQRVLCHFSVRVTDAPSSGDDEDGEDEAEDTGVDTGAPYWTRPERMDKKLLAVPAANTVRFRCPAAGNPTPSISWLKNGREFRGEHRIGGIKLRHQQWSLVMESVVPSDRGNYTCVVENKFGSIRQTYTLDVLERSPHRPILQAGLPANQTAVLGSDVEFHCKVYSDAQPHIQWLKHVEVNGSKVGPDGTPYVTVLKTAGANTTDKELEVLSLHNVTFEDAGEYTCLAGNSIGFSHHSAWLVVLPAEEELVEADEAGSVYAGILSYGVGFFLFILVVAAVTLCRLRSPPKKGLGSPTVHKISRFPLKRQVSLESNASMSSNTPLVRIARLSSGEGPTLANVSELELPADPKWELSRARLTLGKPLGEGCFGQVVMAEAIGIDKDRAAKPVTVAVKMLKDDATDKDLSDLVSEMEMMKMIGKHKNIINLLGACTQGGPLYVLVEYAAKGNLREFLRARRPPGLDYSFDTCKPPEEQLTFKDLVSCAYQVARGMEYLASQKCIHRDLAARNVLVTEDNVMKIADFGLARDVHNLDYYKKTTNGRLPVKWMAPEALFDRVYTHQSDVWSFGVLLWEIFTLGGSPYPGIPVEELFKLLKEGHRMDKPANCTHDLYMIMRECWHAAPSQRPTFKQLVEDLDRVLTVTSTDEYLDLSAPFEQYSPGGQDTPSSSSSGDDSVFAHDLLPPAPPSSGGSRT

[8] = Cytotoxicity against human HL7702 cells assessed as cell survival at 2 to 10 uM after 72 hrs by MTT assay; assay type: cell-based; details: l02, 72 h
[9] = target: Fibroblast growth factor receptor 2 (Homo sapiens, UniProt P21802); assay: Inhibition of FGFR2 (unknown origin) after 90 mins by TR-FRET assay
Fibroblast growth factor receptor 2, sequence (P21802 whole entry): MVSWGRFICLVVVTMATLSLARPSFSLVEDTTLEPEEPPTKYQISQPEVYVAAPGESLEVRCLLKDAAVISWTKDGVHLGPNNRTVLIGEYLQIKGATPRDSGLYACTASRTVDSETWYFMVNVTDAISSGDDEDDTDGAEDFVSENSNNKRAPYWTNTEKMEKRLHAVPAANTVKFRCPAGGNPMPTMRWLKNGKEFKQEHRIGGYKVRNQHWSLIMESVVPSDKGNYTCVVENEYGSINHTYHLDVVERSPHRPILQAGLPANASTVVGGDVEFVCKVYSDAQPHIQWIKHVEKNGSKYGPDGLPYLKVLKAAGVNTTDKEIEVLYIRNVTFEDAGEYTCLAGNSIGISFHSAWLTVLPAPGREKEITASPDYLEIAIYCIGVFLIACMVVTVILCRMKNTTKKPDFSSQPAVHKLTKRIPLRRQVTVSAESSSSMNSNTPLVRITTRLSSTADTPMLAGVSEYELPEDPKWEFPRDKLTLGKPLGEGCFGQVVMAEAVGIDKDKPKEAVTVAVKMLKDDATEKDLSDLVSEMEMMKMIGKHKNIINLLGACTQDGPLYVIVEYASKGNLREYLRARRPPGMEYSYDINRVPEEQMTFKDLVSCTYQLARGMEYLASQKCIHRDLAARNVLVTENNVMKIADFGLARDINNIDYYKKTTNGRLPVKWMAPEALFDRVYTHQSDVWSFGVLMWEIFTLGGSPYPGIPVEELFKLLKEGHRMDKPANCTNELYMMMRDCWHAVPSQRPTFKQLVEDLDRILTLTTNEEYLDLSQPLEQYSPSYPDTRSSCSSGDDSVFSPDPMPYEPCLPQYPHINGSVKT

[10] = target: Fibroblast growth factor receptor 1 (Homo sapiens, UniProt P11362)
Fibroblast growth factor receptor 1, sequence (P11362 whole entry): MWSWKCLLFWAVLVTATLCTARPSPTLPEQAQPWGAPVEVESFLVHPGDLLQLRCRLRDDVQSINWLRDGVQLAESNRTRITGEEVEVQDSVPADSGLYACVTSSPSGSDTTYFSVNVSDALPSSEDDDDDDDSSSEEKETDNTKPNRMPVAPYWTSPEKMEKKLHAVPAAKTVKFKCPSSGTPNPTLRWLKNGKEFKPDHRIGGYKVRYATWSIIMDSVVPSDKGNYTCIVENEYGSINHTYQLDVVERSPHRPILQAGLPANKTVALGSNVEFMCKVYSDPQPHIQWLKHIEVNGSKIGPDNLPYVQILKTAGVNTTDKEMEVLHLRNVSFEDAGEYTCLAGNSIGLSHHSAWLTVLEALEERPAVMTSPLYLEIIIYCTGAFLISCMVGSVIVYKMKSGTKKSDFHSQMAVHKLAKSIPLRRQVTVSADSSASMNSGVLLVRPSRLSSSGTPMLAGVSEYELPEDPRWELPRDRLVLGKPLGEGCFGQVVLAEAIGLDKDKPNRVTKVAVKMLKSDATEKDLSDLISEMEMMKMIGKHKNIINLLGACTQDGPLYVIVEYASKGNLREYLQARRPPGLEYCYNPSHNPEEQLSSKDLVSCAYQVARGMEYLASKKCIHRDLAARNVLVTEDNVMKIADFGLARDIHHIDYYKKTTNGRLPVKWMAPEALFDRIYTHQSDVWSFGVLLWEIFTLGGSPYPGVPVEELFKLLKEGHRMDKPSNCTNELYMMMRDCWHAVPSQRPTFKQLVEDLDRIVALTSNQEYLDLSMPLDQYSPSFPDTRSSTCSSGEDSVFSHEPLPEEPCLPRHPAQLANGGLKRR
Description: Inhibition of FGFR1 (unknown origin) after 90 mins by TR-FRET assay

SMILES: CN1CCN(c2ccc(-c3nc4c(N5CCN(CC(=O)Nc6nccs6)CC5)c(Cl)cnc4[nH]3)cc2)CC1
- IC50 [1]: 1.61 µM
- IC50 [2]: 4.37 µM
- IC50 [3]: 2.59 µM
- IC50 [4]: 0.13 µM
- IC50 [5]: 0.02 µM
- IC50 [6]: 27.6 µM

SMILES: Nc1nc(O)c2nc(-c3ccccc3)[nH]c2n1
- IC50 [4]: > 20 µM
- IC50 [7]: > 20 µM

SMILES: Cc1ccc(-c2nc3c(O)nc(N)nc3[nH]2)c(C)c1
- IC50 [4]: > 20 µM
- IC50 [7]: > 20 µM

SMILES: Nc1nc(O)c2nc(-c3c[nH]c4ccccc34)[nH]c2n1
- IC50 [1]: 10.3 µM
- IC50 [2]: 15.4 µM
- IC50 [3]: 10.4 µM
- IC50 [4]: > 20 µM
- IC50 [6]: 47 µM
- IC50 [7]: > 20 µM

SMILES: CC(=O)Nc1nc(O)c2nc(-c3ccc(C)cc3C)[nH]c2n1
- IC50 [4]: > 20 µM

SMILES: CC(=O)Nc1nc(O)c2nc(-c3c[nH]c4cccc(Br)c34)[nH]c2n1
- IC50 [1]: 6.59 µM
- IC50 [2]: 9.72 µM
- Activity [8]: Non-toxic
- IC50 [3]: 8.28 µM
- IC50 [4]: > 20 µM
- IC50 [6]: 46.6 µM

SMILES: CC(C)(C)NC(=O)Nc1nc2nc(N)ncc2cc1-c1c(Cl)cccc1Cl
- IC50 [1]: 2.62 µM
- IC50 [2]: 3.87 µM
- IC50 [9]: 0.13 µM
- IC50 [3]: 4.34 µM
- IC50 [4]: 0.56 µM
- IC50 [10]: 0.11 µM
- IC50 [6]: 28.4 µM
- IC50 [7]: 0.29 µM

SMILES: COc1cc(CCc2cc(NC(=O)c3ccc(N4C[C@@H](C)N[C@@H](C)C4)cc3)n[nH]2)cc(OC)c1 [FEXAGRATINIB]
- IC50 [1]: 0.051 µM
- IC50 [2]: 0.14 µM
- Activity [8]: Non-toxic
- IC50 [3]: 0.062 µM
- IC50 [6]: 18.2 µM

Now from value to compound, other results behind:

- IC50 [4]: > 20 µM
- IC50 [7]: > 20 µM
SMILES: COc1ccccc1-c1nc2c(O)nc(N)nc2[nH]1

- IC50 [4]: > 20 µM
- IC50 [7]: > 20 µM
SMILES: CC(=O)Nc1nc(O)c2nc(-c3ccccc3)[nH]c2n1

- IC50 [4]: > 20 µM
- IC50 [7]: > 20 µM
SMILES: COc1ccccc1-c1nc2c(O)nc(NC(C)=O)nc2[nH]1

- IC50 [4]: > 20 µM
- IC50 [7]: > 20 µM
SMILES: COc1cccc(-c2nc3c(O)nc(NC(C)=O)nc3[nH]2)c1OC
- IC50 [1]: 10.8 µM
- IC50 [2]: 10.5 µM
- IC50 [3]: 11.9 µM
- IC50 [6]: 50 µM

- IC50 [4]: > 20 µM
SMILES: CC(=O)Nc1nc(O)c2nc(-c3c[nH]c4ccccc34)[nH]c2n1
- IC50 [1]: 8.96 µM
- IC50 [2]: 10.8 µM
- IC50 [3]: 9.39 µM
- IC50 [6]: 47.7 µM
